# Laboratory results: US5837282A, “Ionophore-mediated liposome loading” (priority 1996, dated 1998)
# Where two headings read alike, the source gives them in different places.
# What was measured:
# [1] = Fluorimetric determination of A23187 in a liposomal formulation; assay type: physicochemical; conditions: for Amount of A23187 measured: no removal; for remaining A23187 concentration: initial 500 ng
# Experimental: The quantity of A23187 in SPM/Chol LUVs was determined by measuring the fluorescence intensity of the ionophore at an emission wavelength of 437 nm following solubilization of the liposomal formulation and complexation of the released divalent cations. Briefly, an aliquot of LUV/A23187 (corresponding to 5 μmol total lipid) was combined with a 333 mM EDTA solution (3 μL) and the volume was made up to 1 mL with ethanol:methanol (70:30 v:v). The sample was vortexed until clear, and the fluorescence intensity was measured. Calibration standards were prepared by the addition of known aliquots of A23187 to a 1 mL solution consisting of ethanol:methanol (70:30 v:v) and containing 5 mM total lipid.
# As mentioned above, the concentration of A23187 in LUVs can be quantitated using a fluorimetric assay which allows determination of the amount remaining following various purification procedures. The results are given in Table 5 for SPM/Chol LUVs initially containing A23187 at a concentration of 0.1 μg/μmol lipid. For sample 1 (S1), 146 ng of A23187 was added to the LUVs, and 123 ng was measured by the assay.
# [2] = Pressman, cited from earlier work
# [3] = large Mn2+ gradient still present; Erdahl et al.; cited from earlier work
# [4] = Drug uptake/leakage after removal of nigericin (spin column, dialysis)
# Experimental: Uptake was monitored for LUVs containing 300 mM K2 SO4 at a nigericin concentration of 1 ng/μmol lipid (.box-solid.), and for LUVs which were preincubated with nigericin for 5 min at 60° C., and then passed down a spin column prior to addition of the drug (.circle-solid.).
# Thus, an aliquot of nigericin (1 ng NIG/μmol lipid) was added to a sample of SPM/Chol LUVs containing 300 mm KH2 PO4 and the temperature was increased to 60° C. for 5 min to ensure association of nigericin with the lipid. The sample was then exhaustively dialysed at room temperature against 300 mM sucrose for 20 hours, following which an aliquot was passed down a spin column prior to drug loading with VINC (FIG. 10B).
# To ensure that such was not the case, control uptake experiments were performed on LUVs containing ethylammonium sulfate and amylammonium sulfate which were subjected to the same conditions.
# [5] = Deamer et al.; cited from earlier work
# [6] = Vincristine uptake (loading) into LUVs using nigericin/K+ systems; assay type: physicochemical; conditions: 60 °C
# Experimental: (§1) [^14 C]CIPRO was diluted with cold CIPRO and the specific activity was determined by liquid scintillation counting and absorbance spectroscopy. […] For experiments involving [^14 C]CIPRO, the lipid mixtures were labeled using trace amounts of [^3 H]CHE. For [^3 H]VINC uptake the lipid was labeled with [^14 C]CHE. Lipid specific activities were determined by liquid scintillation counting and by quantification of phospholipid via phosphate assays.
# As with CIPRO, no uptake was observed prior to the addition of nigericin (arrow). […] A further improvement was obtained (93-95%) for LUVs prepared in 300 mM K2 SO4 pH 7.4 with an external pH of 6 (either 20 mM HEPES 300 mM sucrose or 20 mM MES 300 mM sucrose) (see FIG. 9B).
# [7] = Vincristine uptake (loading) into LUVs using A23187 / Mn2+ systems; assay type: physicochemical; conditions: SPM/Chol LUVs, 300 mM MnSO4, 60 °C; for %-uptake / Retention: D/L 0.05, A23187 0.1 μg/μmol lipid
# Experimental: as §1
# Excellent uptake and retention of VINC can also be obtained using Mn^2+ /A23187 with SPM/Chol LUVs (see FIG. 8). Less than 5% uptake was observed when there was no EDTA present in the external medium of Hepes-buffered sucrose (pH 7.5). […] However, extremely poor uptake (40%) is observed at lower external pHs when using 300 mM sucrose 3 mM EDTA.
# [8] = In vitro drug leakage from LUVs in 50% mouse serum at 37 °C; assay type: in vitro ADME; conditions: SPM/Chol LUVs
# Experimental: In this assay, equal volumes of the liposomal drug formulation and of mouse serum are combined in a test tube and incubated at 37° C. Leakage of the drug from the LUVs is assayed by removal of aliquots for spin column analysis.
# An in vitro leakage assay has been designed which employs mouse serum to assess the relative retentive properties of the various liposomal systems. The assay is extremely simple, involving the incubation of equal volumes of mouse serum and LUV (loaded with drug) at 37° C., followed by the application of aliquots to spin columns to quantitate the change in D/L ratio with time.
# in vivo = conditions: mouse, iv; for half-life: 2 mg/kg
# Experimental: Lipid was measured using [^14 C]cholesteryl hexadecyl ether as a tracer. The %-retention is defined as the D/L ratio at time t divided by the initial measured drug to lipid ratio.
# SPM/Chol vesicles (100 nm) were used (55:45; mole %). The vesicles were prepared in a 300 mM K2 SO4 solution or 300 mM MnSO4 and the external medium was exchanged with 300 mM sucrose, 20 mM HEPES, pH 7.0 by overnight dialysis. […] Uptake of the drug was accomplished in the following manner: to an aliquot of liposomes was added either nigericin (1 ng per μmol of lipid) or A23187 (0.1 ,μg/μmol lipid) along with an appropriate amount of drug. For the A23187 experiments, EDTA was present in the external medium at 30 mM.
# Each mouse was injected via a lateral tail vein with 200 μL total volume. […] At varying time points, mice were anaesthetized and blood was collected via cardiac puncture. Blood was immediately centrifuged at 500 g and plasma was collected for lipid and drug determination.
# Each drug was loaded using several methods, and was injected at time 0 into mice. At the indicated times, samples were withdrawn and the D/L ratio of the recovered LUVs was determined.
# [9] = Transmembrane ΔpH measured with [14C]methylamine after vincristine uptake; assay type: physicochemical; conditions: DSPC/Chol LUVs; 300 mM K2-tartrate pH 7.4; nigericin 1 ng/μmol lipid; external HEPES-buffered sucrose pH 5.3-6.3
# Experimental: Uptake of VINC in response to transmembrane gradients of K2 -tartrate has also been investigated in DSPC/Chol LUVs (Table 2). […] The ionophore concentration was 1 ng NIG/μmol lipid.
# [10] = literature; cited from earlier work
# [11] = SPM/Chol LUVs, 300 mM KH2PO4, D/L 0.05 wt:wt, nigericin 1 ng/μmol lipid, external 300 mM sucrose
# [12] = external 300 mM sucrose + 3 mM EDTA
molecule,measurement,setting,value
CNc1ccc2oc(C[C@H]3O[C@@]4(CC[C@H]3C)O[C@H]([C@H](C)C(=O)c3ccc[nH]3)[C@H](C)C[C@H]4C)nc2c1C(=O)O [A23187],Amount of A23187 measured,"[1]; S1, initial amount 146 ng, SPM/Chol LUVs",123 ng
same,remaining A23187 level,"[1]; S2, Sephadex G-50 column eluted with 300 mM sucrose, initial 109 ng",below background
same,remaining A23187 concentration,"[1]; S3, dialysis against 300 mM sucrose",below background levels
same,Amount of A23187 measured,"[1]; S4 + 45 ng A23187, initial amount 45 ng",41 ng
same,Amount of A23187 measured,"[1]; S4 + 90 ng A23187, initial amount 90 ng",94 ng
same,remaining A23187 concentration,"[1]; S4, SM-2 biobeads",below background levels
same,relative binding affinity,"[2]; Ca2+, relative to Mn2+ and Mg2+ (210:2.6:1)",2.6
same,relative binding affinity,"[2]; Mg2+, relative to Mn2+ and Ca2+ (210:2.6:1)",1
same,relative binding affinity,"[2]; Mn2+, relative to Ca2+ and Mg2+ (210:2.6:1)",210
same,divalent cation transport specificity,[2],Mn^2+ >Ca^2+ >Mg^2+
same,fraction of entrapped Mn2+ released from POPC vesicles,[3],< 1/2
"O=C(O)c1cn(C2CC2)c2cc(N3CCNCC3)c(F)cc2c1=O [Ciprofloxacin, ciprofloxacin]",entrapment,"[4]; SPM/Chol LUVs, 300 mM K2SO4, nigericin 1 ng/μmol lipid and drug added at same time, D/L 0.2, 60 °C, within 30 min",80%
same,"in vitro leakage rates, normal versus nigericin-reduced LUVs",[4]; not shown,identical
"CO[C@@H]1C[C@@H](C[C@H]2CC[C@H](C)[C@H]([C@@H](C)C(=O)O)O2)O[C@]2(O[C@](C)([C@H]3CC[C@@](C)([C@@H]4O[C@@H]([C@H]5O[C@@](O)(CO)[C@H](C)C[C@@H]5C)C[C@@H]4C)O3)C[C@H]2C)[C@@H]1C [Nigericin, nigericin]",pH gradient formed across sonicated vesicle membranes,[5],2.2 units
"CC[C@]1(O)C[C@H]2CN(CCc3c([nH]c4ccccc34)[C@@](C(=O)OC)(c3cc4c(cc3OC)N(C=O)[C@H]3[C@@](O)(C(=O)OC)[C@H](OC(C)=O)[C@]5(CC)C=CCN6CC[C@]43[C@@H]65)C2)C1 [Vincristine, vincristine]",Retention,"[6]; DSPC/Chol LUVs, 300 mM K2-tartrate pH 7.4, D/L 0.05 wt:wt, nigericin 1 ng/μmol lipid, external 300 mM sucrose + 20 mM HEPES pH 5.3-6.3",excellent
same,%-uptake,"[6]; DSPC/Chol LUVs, 300 mM K2-tartrate pH 7.4, D/L 0.05 wt:wt, nigericin 1 ng/μmol lipid, external 300 mM sucrose + 20 mM HEPES pH 5.3-6.3 (text: within 15 min)",85-90%
same,%-uptake,"[6]; SPM/Chol LUVs, 300 mM K2-tartrate pH 7.4, D/L 0.05 wt:wt, nigericin 1 ng/μmol lipid, external 300 mM sucrose + 20 mM MES pH 6.0",70%
same,%-uptake,"[6]; SPM/Chol LUVs, 300 mM K2HPO4, D/L 0.05 wt:wt, nigericin 1 ng/μmol lipid, external 300 mM sucrose",< 5%
same,uptake prior to the addition of nigericin,"[6]; SPM/Chol LUVs, 300 mM K2SO4",no uptake
same,Retention,"[6]; SPM/Chol LUVs, 300 mM K2SO4, external 300 mM sucrose",excellent retention
same,Retention,"[6]; SPM/Chol LUVs, 300 mM K2SO4, external HEPES-buffered sucrose pH 7.5, over 75 minutes",poor retention
same,encapsulation,"[6]; SPM/Chol LUVs, 300 mM K2SO4, nigericin 1 ng/μmol lipid, external 300 mM sucrose",~90%
same,uptake,"[6]; SPM/Chol LUVs, 300 mM K2SO4, nigericin 1 ng/μmol lipid, external HEPES-buffered sucrose pH 7.5",60%
same,%-uptake,"[6]; SPM/Chol LUVs, 300 mM K2SO4 pH 7.4, D/L 0.05 wt:wt, nigericin 1 ng/μmol lipid, external 300 mM sucrose + 20 mM HEPES or MES pH 6.0",92%
same,%-uptake,"[6]; SPM/Chol LUVs, 300 mM K2SO4 pH 7.4, D/L 0.05 wt:wt, nigericin 1 ng/μmol lipid, external 300 mM sucrose + 20 mM HEPES or MES pH 6.0, listed as VINC",93-95%
same,%-uptake,[6]; [11],80%
same,Retention,[6]; [11],excellent
same,uptake,"[7]; A23187, external Hepes-buffered sucrose pH 7.5, no EDTA",Less than 5%
same,%-uptake,[7]; [12],40%
same,Retention,[7]; [12],excellent
same,Retention,[7]; external 300 mM sucrose + 20 mM HEPES 3 mM EDTA pH 7.5,excellent
same,%-uptake,[7]; external 300 mM sucrose + 20 mM HEPES 3 mM EDTA pH 7.5 (text: within one hour),> 95%
same,%-uptake,"[7]; external 300 mM sucrose + 20 mM HEPES 3 mM EDTA pH 7.5 (text: within one hour), listed as VINC",over 95%
same,Retention,"[7]; external 300 mM sucrose + 20 mM HEPES 3 mM EDTA pH 7.5, listed as VINC",Excellent
same,%-uptake,"[7]; external 300 mM sucrose, no EDTA",5%
same,"retention in mouse serum, K+/nigericin with phosphate or tartrate salts, or sulfate salts with external pH of 6",[8],better retention
same,"retention of drug in mouse serum, Mn2+/A23187 versus K+/nigericin system",[8],better retention
same,"retention in mouse serum, Mn2+/A23187 versus LUVs loaded using methylammonium sulfate",[8]; results not shown,similar
same,uptake after 20 h dialysis and spin column,"[4]; SPM/Chol LUVs, 300 mM KH2PO4 (printed 300 mm), nigericin 1 ng/μmol lipid, at 1 hr",60%
same,factor by which drug leakage half-lives differ (citrate vs A23187),in vivo,two
same,half-life,in vivo,6 h
same,half-life,in vivo; pH 4,8.5 h
same,"in vivo retention, A23187 versus 300 mM citrate pH 4.0",in vivo; pH 4,comparable
same,ΔpH present following drug uptake,[9],2.3
same,efficacy in liposomally-encapsulated formulations,[10],equal or increased efficacy
same,toxicity in liposomally-encapsulated formulations,[10],significantly reduced toxicity
COc1cccc2c1C(=O)c1c(O)c3c(c(O)c1C2=O)C[C@@](O)(C(=O)CO)C[C@@H]3O[C@H]1C[C@H](N)[C@H](O)[C@H](C)O1 [doxorubicin],effect of encapsulation on drug toxicity (particularly acute cardiotoxicity),[10],can decrease drug toxicity
same,efficacy in liposomally-encapsulated formulations,[10],equal or increased efficacy
same,toxicity in liposomally-encapsulated formulations,[10],significantly reduced toxicity
amylammonium sulfate,encapsulation in control LUVs containing amine salt subjected to the same dialysis,"[4]; control LUVs, same dialysis conditions",80-95%
